Laboratory results published in patent US20210015884A1 (priority 2018, published 2021).

System: m^6A levels in viral RNA
Format: cell-based

Structure (SMILES) | total m^6A levels in viral RNA
Nc1nccc2c1ncn2[C@@H]1O[C@H](CO)[C@@H](O)[C@H]1O [3DZA, 3-Deazaadenosine] | reduction of m^6A
Cc1ccc(Cl)c(Nc2ccccc2C(=O)O)c1Cl [MA, meclofenamic acid] | increase of m^6A
